Laboratory results published in the supplement of paper PMC10307832.

What was measured:
Experiment in all cases: relative viability (nuclei count vs DMSO), 5 days (fraction); higher = more cells survive
[1] = test system: NCI-H520
In short: (§1)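 Nuclei were stained with Hoechst during a one-step fixation (final 0.05% Triton X-100, 1% formaldehyde, 1 ug/ml Hoechst) carried out 5 days after dosing, then counted on 4× images. The cells, lung cancer lines in 1536-well plates, had been dosed by pin tool the day after seeding with one drug alone or a fixed anchor-drug dose plus five library-drug doses (not always all listed) in √10 steps. Relative viability is the nuclei count in treated wells divided by that in vehicle wells, and each value is the median of duplicate plates.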

[2] = test system: ChaGo-K-1
In short: as §1

[3] = test system: NCI-H23
In short: as §1

[4] = test system: NCI-H1563
In short: as §1

[5] = test system: EKVX
In short: as §1

[6] = test system: COR-L 105
In short: as §1

[7] = test system: NCI-H441
In short: as §1

[8] = test system: NCI-H1666
In short: as §1

[9] = test system: PC-3 [JPC-3]
In short: as §1

[10] = test system: NCI-H1734
In short: as §1

[11] = test system: A-427
In short: as §1

[12] = test system: SK-MES-1
In short: as §1

[13] = test system: LOU-NH91
In short: as §1

[14] = test system: EMC-BAC-2
In short: as §1

[15] = test system: H3255
In short: as §1

[16] = test system: NCI-H1755
In short: as §1

[17] = test system: LK-2
In short: as §1

[18] = test system: HCC-366
In short: as §1

[19] = test system: NCI-H596
In short: as §1

[20] = test system: SW 900
In short: as §1

[21] = test system: NCI-H2170
In short: as §1

[22] = test system: NCI-H1975
In short: as §1

Nc1ccn([C@@H]2O[C@H](CO)[C@@H](O)[C@@H]2O)c(=O)n1 [Cytarabine] + COc1cc2c(Oc3ccc(NC(=O)C4(C(=O)Nc5ccc(F)cc5)CC4)cc3F)ccnc2cc1OCCCN1CCOCC1 [Foretinib] (partner 0.25 µM)
relative viability ([1]; first compound 0.005 µM): 0.739 | relative viability ([1]; first compound 0.01581 µM): 0.795 | relative viability ([1]; first compound 0.05 µM): 0.974 | relative viability ([1]; first compound 0.1581 µM): 0.621 | relative viability ([1]; first compound 0.5 µM): 0.589 | relative viability ([2]; first compound 0.005 µM): 0.734 | relative viability ([2]; first compound 0.01581 µM): 0.59 | relative viability ([2]; first compound 0.05 µM): 0.391 | relative viability ([2]; first compound 0.1581 µM): 0.259 | relative viability ([2]; first compound 0.5 µM): 0.251 | relative viability ([3]; first compound 0.005 µM): 0.784 | relative viability ([3]; first compound 0.01581 µM): 0.414 | relative viability ([3]; first compound 0.05 µM): 0.43 | relative viability ([3]; first compound 0.1581 µM): 0.285 | relative viability ([3]; first compound 0.5 µM): 0.256 | relative viability ([4]; first compound 0.005 µM): 0.869 | relative viability ([4]; first compound 0.01581 µM): 0.875 | relative viability ([4]; first compound 0.05 µM): 0.869 | relative viability ([4]; first compound 0.1581 µM): 0.846 | relative viability ([4]; first compound 0.5 µM): 0.73 | relative viability ([5]; first compound 0.005 µM): 0.866 | relative viability ([5]; first compound 0.01581 µM): 0.594 | relative viability ([5]; first compound 0.05 µM): 0.622 | relative viability ([5]; first compound 0.1581 µM): 0.413 | relative viability ([5]; first compound 0.5 µM): 0.793 | relative viability ([6]; first compound 0.005 µM): 0.972 | relative viability ([6]; first compound 0.01581 µM): 1.29 | relative viability ([6]; first compound 0.05 µM): 0.825 | relative viability ([6]; first compound 0.1581 µM): 0.812 | relative viability ([6]; first compound 0.5 µM): 0.438 | relative viability ([7]; first compound 0.005 µM): 0.841 | relative viability ([7]; first compound 0.01581 µM): 0.856 | relative viability ([7]; first compound 0.05 µM): 1.05 | relative viability ([7]; first compound 0.1581 µM): 0.661 | relative viability ([7]; first compound 0.5 µM): 0.4 | relative viability ([8]; first compound 0.005 µM): 0.921 | relative viability ([8]; first compound 0.01581 µM): 0.869 | relative viability ([8]; first compound 0.05 µM): 0.799 | relative viability ([8]; first compound 0.1581 µM): 0.549 | relative viability ([8]; first compound 0.5 µM): 0.541 | relative viability ([9]; first compound 0.005 µM): 0.947 | relative viability ([9]; first compound 0.01581 µM): 0.832 | relative viability ([9]; first compound 0.05 µM): 0.939 | relative viability ([9]; first compound 0.1581 µM): 0.629 | relative viability ([9]; first compound 0.5 µM): 0.615 | relative viability ([10]; first compound 0.005 µM): 0.553 | relative viability ([10]; first compound 0.01581 µM): 0.373 | relative viability ([10]; first compound 0.05 µM): 0.205 | relative viability ([10]; first compound 0.1581 µM): 0.164 | relative viability ([10]; first compound 0.5 µM): 0.124 | relative viability ([11]; first compound 0.005 µM): 0.975 | relative viability ([11]; first compound 0.01581 µM): 0.399 | relative viability ([11]; first compound 0.05 µM): 0.296 | relative viability ([11]; first compound 0.1581 µM): 0.182 | relative viability ([11]; first compound 0.5 µM): 0.176 | relative viability ([12]; first compound 0.005 µM): 0.763 | relative viability ([12]; first compound 0.01581 µM): 0.704 | relative viability ([12]; first compound 0.05 µM): 0.457 | relative viability ([12]; first compound 0.1581 µM): 0.336 | relative viability ([12]; first compound 0.5 µM): 0.304 | relative viability ([13]; first compound 0.005 µM): 0.993 | relative viability ([13]; first compound 0.01581 µM): 0.926 | relative viability ([13]; first compound 0.05 µM): 0.869 | relative viability ([13]; first compound 0.1581 µM): 0.585 | relative viability ([13]; first compound 0.5 µM): 0.712 | relative viability ([14]; first compound 0.005 µM): 0.954 | relative viability ([14]; first compound 0.01581 µM): 0.831 | relative viability ([14]; first compound 0.05 µM): 0.305 | relative viability ([14]; first compound 0.1581 µM): 0.282 | relative viability ([14]; first compound 0.5 µM): 0.226 | relative viability ([15]; first compound 0.005 µM): 0.889 | relative viability ([15]; first compound 0.01581 µM): 0.905 | relative viability ([15]; first compound 0.05 µM): 0.628 | relative viability ([15]; first compound 0.1581 µM): 0.665 | relative viability ([15]; first compound 0.5 µM): 0.531 | relative viability ([16]; first compound 0.005 µM): 0.962 | relative viability ([16]; first compound 0.01581 µM): 0.886 | relative viability ([16]; first compound 0.05 µM): 0.736 | relative viability ([16]; first compound 0.1581 µM): 0.387 | relative viability ([16]; first compound 0.5 µM): 0.356 | relative viability ([17]; first compound 0.005 µM): 1.33 | relative viability ([17]; first compound 0.01581 µM): 0.683 | relative viability ([17]; first compound 0.05 µM): 0.741 | relative viability ([17]; first compound 0.1581 µM): 0.309 | relative viability ([17]; first compound 0.5 µM): 0.282 | relative viability ([18]; first compound 0.005 µM): 0.991 | relative viability ([18]; first compound 0.01581 µM): 0.831 | relative viability ([18]; first compound 0.05 µM): 0.584 | relative viability ([18]; first compound 0.1581 µM): 0.119 | relative viability ([18]; first compound 0.5 µM): 0.105 | relative viability ([19]; first compound 0.005 µM): 0.923 | relative viability ([19]; first compound 0.01581 µM): 0.723 | relative viability ([19]; first compound 0.05 µM): 0.542 | relative viability ([19]; first compound 0.1581 µM): 0.44 | relative viability ([19]; first compound 0.5 µM): 0.336 | relative viability ([20]; first compound 0.005 µM): 0.688 | relative viability ([20]; first compound 0.01581 µM): 0.569 | relative viability ([20]; first compound 0.05 µM): 0.329 | relative viability ([20]; first compound 0.1581 µM): 0.21 | relative viability ([20]; first compound 0.5 µM): 0.114 | relative viability ([21]; first compound 0.005 µM): 0.736 | relative viability ([21]; first compound 0.01581 µM): 0.458 | relative viability ([21]; first compound 0.05 µM): 0.672 | relative viability ([21]; first compound 0.1581 µM): 0.515 | relative viability ([21]; first compound 0.5 µM): 0.569 | relative viability ([22]; first compound 0.005 µM): 0.982 | relative viability ([22]; first compound 0.01581 µM): 1.03 | relative viability ([22]; first compound 0.05 µM): 0.889 | relative viability ([22]; first compound 0.1581 µM): 0.481 | relative viability ([22]; first compound 0.5 µM): 0.314
